According to PubChem BioAssay (NCI):
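All cell lines were grown in 96-well plates and treated with compound for 48 hours. Here, GI50 denotes the concentration required for 50% inhibition of growth. TGI: concentration producing complete growth inhibition.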

What was measured:
Experiment in all cases: NCI anticancer screen, dose series, 48 h; in the data active means GI50 below about 0.43 µM; inactive means the rest
A549 NSCLC = tested on: A549 NSCLC
HCT-116 colon = tested on: HCT-116 colon
HOP-92 NSCLC = tested on: HOP-92 NSCLC
IGROV1 ovarian = tested on: IGROV1 ovarian
NCI/ADR-RES ovarian = tested on: NCI/ADR-RES ovarian
OVCAR-5 ovarian = tested on: OVCAR-5 ovarian
PC-3 prostate = tested on: PC-3 prostate
SF-539 CNS = tested on: SF-539 CNS
SK-MEL-28 melanoma = tested on: SK-MEL-28 melanoma
SK-OV-3 ovarian = tested on: SK-OV-3 ovarian

CC12CCC3C(CC=C4CC(O)CCC43C)C1C/C(=C\N1CCCC1)C2=O (stereo unspecified)
inactive: GI50 (A549 NSCLC) > 100 µM | GI50 (HCT-116 colon) 69.3 µM | GI50 (HOP-92 NSCLC) 4.52 µM | GI50 (IGROV1 ovarian) 51.8 µM | GI50 (NCI/ADR-RES ovarian) > 100 µM | GI50 (OVCAR-5 ovarian) > 100 µM | GI50 (PC-3 prostate) 55 µM | GI50 (SF-539 CNS) > 100 µM | GI50 (SK-MEL-28 melanoma) > 100 µM | GI50 (SK-OV-3 ovarian) > 100 µM
83.7 µM: TGI (HOP-92 NSCLC)
> 100 µM: TGI (A549 NSCLC) | TGI (HCT-116 colon) | TGI (IGROV1 ovarian) | TGI (NCI/ADR-RES ovarian) | TGI (OVCAR-5 ovarian) | TGI (PC-3 prostate) | TGI (SF-539 CNS) | TGI (SK-MEL-28 melanoma) | TGI (SK-OV-3 ovarian)

CCCC1c2c(ccc3ccccc23)Oc2ccc3ccccc3c21
> 100 µM: TGI (A549 NSCLC) | TGI (HCT-116 colon) | TGI (HOP-92 NSCLC) | TGI (IGROV1 ovarian) | TGI (NCI/ADR-RES ovarian) | TGI (OVCAR-5 ovarian) | TGI (PC-3 prostate) | TGI (SF-539 CNS) | TGI (SK-MEL-28 melanoma) | TGI (SK-OV-3 ovarian)

Oc1ccc(Cc2ccc(O)c3ncccc23)c2cccnc12
active: GI50 (A549 NSCLC) 0.0371 µM | GI50 (HCT-116 colon) 0.0359 µM | GI50 (HOP-92 NSCLC) 0.0114 µM | GI50 (IGROV1 ovarian) 0.0776 µM | GI50 (NCI/ADR-RES ovarian) 0.212 µM | GI50 (OVCAR-5 ovarian) 0.269 µM | GI50 (PC-3 prostate) 0.0583 µM | GI50 (SK-MEL-28 melanoma) 0.0607 µM | GI50 (SK-OV-3 ovarian) 0.214 µM
0.653 µM: TGI (SK-OV-3 ovarian)
> 100 µM: TGI (HCT-116 colon) | TGI (IGROV1 ovarian) | TGI (NCI/ADR-RES ovarian) | TGI (OVCAR-5 ovarian) | TGI (SK-MEL-28 melanoma)
73.9 µM: TGI (A549 NSCLC)
0.0513 µM: TGI (HOP-92 NSCLC)
53.2 µM: TGI (PC-3 prostate)

COc1cc(Nc2nc3cc(N)cc(N)c3nc2-c2ccccc2)cc(OC)c1
17.1 µM: TGI (IGROV1 ovarian)
inactive: GI50 (A549 NSCLC) 20.1 µM | GI50 (HCT-116 colon) 16.9 µM | GI50 (IGROV1 ovarian) 2.7 µM | GI50 (NCI/ADR-RES ovarian) 12.9 µM | GI50 (OVCAR-5 ovarian) 26.6 µM | GI50 (PC-3 prostate) 1.96 µM | GI50 (SK-MEL-28 melanoma) 14.7 µM | GI50 (SK-OV-3 ovarian) 6.55 µM
89.3 µM: TGI (SK-MEL-28 melanoma)
10.9 µM: TGI (PC-3 prostate)
40.2 µM: TGI (SK-OV-3 ovarian)
73.4 µM: TGI (NCI/ADR-RES ovarian)
> 100 µM: TGI (A549 NSCLC) | TGI (OVCAR-5 ovarian)
54.1 µM: TGI (HCT-116 colon)

C[C@@H]1C=C(CCCCCCCCCCC[C@H](O)[C@@H]2CCC(=O)O2)C(=O)O1
> 100 µM: TGI (A549 NSCLC) | TGI (HCT-116 colon) | TGI (SF-539 CNS) | TGI (SK-MEL-28 melanoma) | TGI (SK-OV-3 ovarian)
34 µM: TGI (NCI/ADR-RES ovarian)
inactive: GI50 (A549 NSCLC) 38.1 µM | GI50 (HCT-116 colon) 28 µM | GI50 (IGROV1 ovarian) 13.7 µM | GI50 (NCI/ADR-RES ovarian) 12.1 µM | GI50 (PC-3 prostate) 30.5 µM | GI50 (SF-539 CNS) 38.8 µM | GI50 (SK-MEL-28 melanoma) 78.3 µM | GI50 (SK-OV-3 ovarian) 51.7 µM
67.9 µM: TGI (IGROV1 ovarian)
92.9 µM: TGI (PC-3 prostate)

Cc1c(C#N)cccc1-c1cc(-c2cn(Cc3cccc(C(C)(C)O)n3)nn2)nc(N)n1
inactive: GI50 (A549 NSCLC) 26.9 µM | GI50 (HCT-116 colon) 32.1 µM | GI50 (IGROV1 ovarian) 14.4 µM | GI50 (NCI/ADR-RES ovarian) 24.1 µM | GI50 (OVCAR-5 ovarian) > 100 µM | GI50 (PC-3 prostate) 17.7 µM | GI50 (SF-539 CNS) 39.6 µM | GI50 (SK-MEL-28 melanoma) 39.1 µM | GI50 (SK-OV-3 ovarian) 48.8 µM
87.5 µM: TGI (PC-3 prostate)
> 100 µM: TGI (A549 NSCLC) | TGI (HCT-116 colon) | TGI (IGROV1 ovarian) | TGI (NCI/ADR-RES ovarian) | TGI (OVCAR-5 ovarian) | TGI (SF-539 CNS) | TGI (SK-MEL-28 melanoma) | TGI (SK-OV-3 ovarian)

CC[C@]1(O)CC2CN(CCc3c([nH]c4ccccc34)[C@@](C(=O)OC)(c3cc4c(cc3OC)N(C)[C@H]3[C@@](O)(C(=O)OC)[C@H](OC(C)=O)[C@]5(CC)C=CCN6CC[C@]43[C@@H]65)C2)C1 (stereo partly specified)
1.06 µM: TGI (NCI/ADR-RES ovarian)
12.3 µM: TGI (PC-3 prostate)
0.293 µM: TGI (SF-539 CNS)
> 50 µM: TGI (A549 NSCLC)
0.269 µM: TGI (HCT-116 colon)
> 30 µM: TGI (IGROV1 ovarian)
0.119 µM: TGI (HOP-92 NSCLC)
> 47.2 µM: TGI (OVCAR-5 ovarian)
active: GI50 (A549 NSCLC) < 0.005 µM | GI50 (HCT-116 colon) < 0.005 µM | GI50 (HOP-92 NSCLC) < 0.005 µM | GI50 (IGROV1 ovarian) 0.00517 µM | GI50 (NCI/ADR-RES ovarian) 0.0912 µM | GI50 (OVCAR-5 ovarian) 0.01 µM | GI50 (PC-3 prostate) < 0.005 µM | GI50 (SF-539 CNS) < 0.005 µM | GI50 (SK-OV-3 ovarian) < 0.005 µM
0.00977 µM: TGI (SK-OV-3 ovarian)

COc1ccc(/C=C/C(=O)c2cc3c(N)c(C(=O)Nc4ccccc4Cl)sc3nc2C)cc1
inactive: GI50 (A549 NSCLC) 2.14 µM | GI50 (HCT-116 colon) 1.11 µM | GI50 (HOP-92 NSCLC) 0.689 µM | GI50 (IGROV1 ovarian) 2.72 µM | GI50 (NCI/ADR-RES ovarian) 1.62 µM | GI50 (OVCAR-5 ovarian) > 50 µM | GI50 (PC-3 prostate) 2.92 µM | GI50 (SF-539 CNS) 2.04 µM | GI50 (SK-OV-3 ovarian) 3.58 µM
16 µM: TGI (NCI/ADR-RES ovarian)
> 50 µM: TGI (A549 NSCLC) | TGI (HCT-116 colon) | TGI (IGROV1 ovarian) | TGI (OVCAR-5 ovarian) | TGI (PC-3 prostate)
19 µM: TGI (SK-OV-3 ovarian)
9.45 µM: TGI (SF-539 CNS)
4.18 µM: TGI (HOP-92 NSCLC)

Cc1cn(C2CC(F)C(CO)O2)c(=O)[nH]c1=O (stereo unspecified)
> 100 µM: TGI (A549 NSCLC) | TGI (HCT-116 colon) | TGI (HOP-92 NSCLC) | TGI (IGROV1 ovarian) | TGI (NCI/ADR-RES ovarian) | TGI (OVCAR-5 ovarian) | TGI (PC-3 prostate) | TGI (SK-MEL-28 melanoma) | TGI (SK-OV-3 ovarian)
inactive: GI50 (A549 NSCLC) > 100 µM | GI50 (HCT-116 colon) > 100 µM | GI50 (HOP-92 NSCLC) > 100 µM | GI50 (IGROV1 ovarian) > 100 µM | GI50 (NCI/ADR-RES ovarian) > 100 µM | GI50 (OVCAR-5 ovarian) > 100 µM | GI50 (PC-3 prostate) > 100 µM | GI50 (SK-MEL-28 melanoma) > 100 µM | GI50 (SK-OV-3 ovarian) > 100 µM

CCOP(=O)(OCC)C(NC(c1ccccc1)c1ccccc1)c1ccccc1 (stereo unspecified)
30 µM: TGI (A549 NSCLC)
31.9 µM: TGI (HOP-92 NSCLC)
26 µM: TGI (HCT-116 colon)
inactive: GI50 (A549 NSCLC) 15 µM | GI50 (HCT-116 colon) 13.2 µM | GI50 (HOP-92 NSCLC) 15.6 µM | GI50 (NCI/ADR-RES ovarian) 11 µM | GI50 (PC-3 prostate) 12 µM | GI50 (SF-539 CNS) 17.2 µM | GI50 (SK-MEL-28 melanoma) 41.1 µM | GI50 (SK-OV-3 ovarian) 24.3 µM
27.1 µM: TGI (PC-3 prostate)
24.8 µM: TGI (NCI/ADR-RES ovarian)
52 µM: TGI (SK-OV-3 ovarian)
33.1 µM: TGI (SF-539 CNS)
> 100 µM: TGI (SK-MEL-28 melanoma)

Oc1ccc(/C=N\Nc2ccccn2)c(O)c1
inactive: GI50 (A549 NSCLC) 2.51 µM | GI50 (HCT-116 colon) 1.7 µM | GI50 (HOP-92 NSCLC) 5.02 µM | GI50 (IGROV1 ovarian) 0.638 µM | GI50 (OVCAR-5 ovarian) 5.48 µM | GI50 (PC-3 prostate) 4.56 µM | GI50 (SK-MEL-28 melanoma) 16 µM | GI50 (SK-OV-3 ovarian) 3.24 µM
> 100 µM: TGI (A549 NSCLC) | TGI (HCT-116 colon) | TGI (HOP-92 NSCLC) | TGI (NCI/ADR-RES ovarian) | TGI (OVCAR-5 ovarian) | TGI (PC-3 prostate) | TGI (SK-MEL-28 melanoma) | TGI (SK-OV-3 ovarian)
active: GI50 (NCI/ADR-RES ovarian) 0.364 µM
3.64 µM: TGI (IGROV1 ovarian)
